{
  "source": "patent US20110268729A1",
  "about": "“TREATMENT OF AMYOTROPHIC LATERAL SCLEROSIS BY NOGO-A-ANTAGONIST” (priority 2008, published 2011)",
  "system": "SOD1^G93A mice",
  "test": "In vivo ALS model muscle physiology study with 2A10 and riluzole",
  "design": "species or system mouse",
  "description": "Fresh solutions were prepared once a week with the total consumed volume measured in order to ensure a constant daily and weekly dose.",
  "data": [
    {"smiles": "Nc1nc2ccc(OC(F)(F)F)cc2s1", "note": "[Riluzole, 2-Amino-6-(trifluoromethoxy)benzothiazole]", "values": [
      {"measurement": "TA maximum tetanic force", "setting": "day 90, relative to SOD1-B vehicle group, riluzole 30 mg/kg p 0.0607, anti-Nogo-A 30 mg/kg p 0.1219, combination p 0.039", "value": "failed to reach statistical significance"},
      {"measurement": "TA time to 1/2 relaxation", "setting": "day 90, vs SOD1 vehicle, riluzole plus 3 mg/kg anti-Nogo-A p value 0.0212", "value": "trend to normalisation"}
    ]}
  ]
}
